Results: PubChem BioAssay AID602164 (The Scripps Research Institute Molecular Screening Center, 2012)

System: 2B4/Mcl-1 cells apoptosis, absorbance viability
Assay: Mcl-1-selective cell killing, 2B4 lines – absorbance, 2B4/Mcl1 vs 2B4/Bcl-2, selectivity assay for MCL1-BIM inhibitor project, late-stage follow-up (AID 602164)

Q: How did the IC50 turn out when `Oc1c(C(c2cccs2)N2CCCCC2)ccc2cccnc12` (stereo not drawn) was run?
A: Its IC50 is 4.4 µM.

Q: With `Oc1c(C(Nc2ccccn2)c2cccs2)ccc2cccnc12` (stereo not drawn) as the molecule, how does the IC50 read?
A: Its IC50 is 3.1 µM.

Q: How did the IC50 turn out when `CCN1CCN(C(c2cccs2)c2ccc3cccnc3c2O)CC1` (stereo not drawn) was run?
A: The IC50 was 3.8 µM.

Q: `OCCN1CCN(C(c2cccs2)c2ccc3cccnc3c2O)CC1` (stereo not drawn) was tested. Which IC50 did it give?
A: The IC50 was 5.1 µM.

Q: For `Cc1ccnc(NC(c2cccs2)c2ccc3cccnc3c2O)c1` (stereo not drawn), which IC50 is on record?
A: The IC50 was 2.4 µM.

Q: Which IC50 does the source give for `CC(C)Oc1ccc(C(Nc2ccccn2)c2ccc3cccnc3c2O)cc1` (stereo not drawn) here?
A: The IC50 was 2.3 µM.

Q: With `CN1CCN(C(c2ccc(F)cc2)c2ccc3cccnc3c2O)CC1` (stereo not drawn) as the molecule, how does the IC50 read?
A: Its IC50 is 4 µM.

Q: For `Oc1c(C(c2cccs2)N2CCN(c3ccccn3)CC2)ccc2cccnc12` (stereo not drawn), which IC50 is on record?
A: The IC50 was 3.7 µM.
